Laboratory results published in ChEMBL document CHEMBL1201862, “PubChem BioAssay data set” (2004).
Activity calls are given as the source filed them.

Legend:
[1] = molecular target: T1, Zinc finger protein mex-5 (Caenorhabditis elegans, UniProt Q9XUB2); test: MEX-5/TCR-2 RNA interaction inhibitors, dose response, biochemical, C. elegans, fluorescence polarization (AID 1960)
T1 sequence (Q9XUB2 whole entry): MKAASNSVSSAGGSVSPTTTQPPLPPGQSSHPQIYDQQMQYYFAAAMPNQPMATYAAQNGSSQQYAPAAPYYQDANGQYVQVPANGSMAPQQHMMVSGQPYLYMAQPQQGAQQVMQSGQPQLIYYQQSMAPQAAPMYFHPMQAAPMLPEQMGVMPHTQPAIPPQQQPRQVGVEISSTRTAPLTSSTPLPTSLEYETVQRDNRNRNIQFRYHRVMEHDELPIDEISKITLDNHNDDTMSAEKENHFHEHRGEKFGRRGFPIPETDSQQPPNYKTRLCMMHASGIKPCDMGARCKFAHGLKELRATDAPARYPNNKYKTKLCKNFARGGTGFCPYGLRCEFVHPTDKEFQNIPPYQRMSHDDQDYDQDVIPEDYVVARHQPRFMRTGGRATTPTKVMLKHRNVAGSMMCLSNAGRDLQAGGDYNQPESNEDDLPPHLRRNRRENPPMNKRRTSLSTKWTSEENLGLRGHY

[2] = molecular target: Tyrosine-protein kinase receptor TYRO3 (Homo sapiens, UniProt Q06418); assay type: functional;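 further: TYRO3 value obtained as one member of a kinome-wide profiling panel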
Sequence of Tyrosine-protein kinase receptor TYRO3 (Q06418 whole entry): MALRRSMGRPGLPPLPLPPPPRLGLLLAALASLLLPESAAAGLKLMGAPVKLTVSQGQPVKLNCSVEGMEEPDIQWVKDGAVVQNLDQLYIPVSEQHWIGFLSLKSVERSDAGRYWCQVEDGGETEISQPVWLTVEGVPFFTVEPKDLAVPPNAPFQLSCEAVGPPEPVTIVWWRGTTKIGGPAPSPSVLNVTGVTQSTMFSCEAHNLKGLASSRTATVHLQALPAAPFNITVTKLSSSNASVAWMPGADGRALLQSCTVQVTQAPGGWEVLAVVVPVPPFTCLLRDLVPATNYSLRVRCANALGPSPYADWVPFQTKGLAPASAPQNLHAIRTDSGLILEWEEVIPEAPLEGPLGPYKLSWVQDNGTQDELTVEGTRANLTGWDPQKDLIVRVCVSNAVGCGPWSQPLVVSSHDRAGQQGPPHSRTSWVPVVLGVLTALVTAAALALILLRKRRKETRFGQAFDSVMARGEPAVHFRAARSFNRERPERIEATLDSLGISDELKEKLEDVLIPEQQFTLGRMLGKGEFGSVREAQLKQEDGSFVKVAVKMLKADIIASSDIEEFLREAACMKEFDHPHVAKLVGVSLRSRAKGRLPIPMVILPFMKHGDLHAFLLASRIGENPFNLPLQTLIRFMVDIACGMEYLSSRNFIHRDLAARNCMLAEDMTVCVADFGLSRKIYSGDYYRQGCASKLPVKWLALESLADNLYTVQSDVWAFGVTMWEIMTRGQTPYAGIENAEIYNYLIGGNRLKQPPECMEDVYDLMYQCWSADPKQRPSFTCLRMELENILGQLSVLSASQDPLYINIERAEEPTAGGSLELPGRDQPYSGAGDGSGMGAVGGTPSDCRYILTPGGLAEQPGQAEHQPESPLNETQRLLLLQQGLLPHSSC

[3] = molecular target: Macrophage colony-stimulating factor 1 receptor (Homo sapiens, UniProt P07333); assay type: functional;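 further: value comes from the Navigating the Kinome screening panel, CSF1R member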
Sequence of Macrophage colony-stimulating factor 1 receptor (P07333 whole entry): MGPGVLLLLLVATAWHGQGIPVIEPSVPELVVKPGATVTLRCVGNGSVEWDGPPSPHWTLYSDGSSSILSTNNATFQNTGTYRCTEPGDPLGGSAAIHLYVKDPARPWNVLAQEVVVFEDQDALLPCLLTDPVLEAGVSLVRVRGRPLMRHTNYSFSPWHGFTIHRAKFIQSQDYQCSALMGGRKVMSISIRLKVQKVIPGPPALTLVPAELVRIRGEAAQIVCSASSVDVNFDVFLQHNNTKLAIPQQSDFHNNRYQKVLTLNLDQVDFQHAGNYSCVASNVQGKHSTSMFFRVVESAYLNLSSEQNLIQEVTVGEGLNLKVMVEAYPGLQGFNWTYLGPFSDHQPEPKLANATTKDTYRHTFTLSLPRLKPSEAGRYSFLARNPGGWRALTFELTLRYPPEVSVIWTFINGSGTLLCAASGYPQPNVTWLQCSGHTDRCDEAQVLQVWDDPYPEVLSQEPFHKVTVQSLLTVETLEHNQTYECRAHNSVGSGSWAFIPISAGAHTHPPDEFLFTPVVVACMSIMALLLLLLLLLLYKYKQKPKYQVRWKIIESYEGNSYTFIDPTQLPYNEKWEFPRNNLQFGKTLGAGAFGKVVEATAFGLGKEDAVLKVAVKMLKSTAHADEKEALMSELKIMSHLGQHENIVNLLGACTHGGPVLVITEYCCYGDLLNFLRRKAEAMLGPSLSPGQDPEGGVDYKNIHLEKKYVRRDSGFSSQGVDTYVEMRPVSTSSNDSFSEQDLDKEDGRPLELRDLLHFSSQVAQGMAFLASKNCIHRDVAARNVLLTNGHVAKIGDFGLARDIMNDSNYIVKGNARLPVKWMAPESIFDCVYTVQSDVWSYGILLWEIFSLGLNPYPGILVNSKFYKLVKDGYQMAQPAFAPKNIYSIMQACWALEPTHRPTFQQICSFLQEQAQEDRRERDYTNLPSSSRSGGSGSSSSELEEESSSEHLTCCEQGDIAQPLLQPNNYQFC

[4] = molecular target: Platelet-derived growth factor receptor alpha (Homo sapiens, UniProt P16234); test: Navigating the Kinome. Panel member name: PDGFRA; assay type: functional
Sequence of Platelet-derived growth factor receptor alpha (P16234 whole entry): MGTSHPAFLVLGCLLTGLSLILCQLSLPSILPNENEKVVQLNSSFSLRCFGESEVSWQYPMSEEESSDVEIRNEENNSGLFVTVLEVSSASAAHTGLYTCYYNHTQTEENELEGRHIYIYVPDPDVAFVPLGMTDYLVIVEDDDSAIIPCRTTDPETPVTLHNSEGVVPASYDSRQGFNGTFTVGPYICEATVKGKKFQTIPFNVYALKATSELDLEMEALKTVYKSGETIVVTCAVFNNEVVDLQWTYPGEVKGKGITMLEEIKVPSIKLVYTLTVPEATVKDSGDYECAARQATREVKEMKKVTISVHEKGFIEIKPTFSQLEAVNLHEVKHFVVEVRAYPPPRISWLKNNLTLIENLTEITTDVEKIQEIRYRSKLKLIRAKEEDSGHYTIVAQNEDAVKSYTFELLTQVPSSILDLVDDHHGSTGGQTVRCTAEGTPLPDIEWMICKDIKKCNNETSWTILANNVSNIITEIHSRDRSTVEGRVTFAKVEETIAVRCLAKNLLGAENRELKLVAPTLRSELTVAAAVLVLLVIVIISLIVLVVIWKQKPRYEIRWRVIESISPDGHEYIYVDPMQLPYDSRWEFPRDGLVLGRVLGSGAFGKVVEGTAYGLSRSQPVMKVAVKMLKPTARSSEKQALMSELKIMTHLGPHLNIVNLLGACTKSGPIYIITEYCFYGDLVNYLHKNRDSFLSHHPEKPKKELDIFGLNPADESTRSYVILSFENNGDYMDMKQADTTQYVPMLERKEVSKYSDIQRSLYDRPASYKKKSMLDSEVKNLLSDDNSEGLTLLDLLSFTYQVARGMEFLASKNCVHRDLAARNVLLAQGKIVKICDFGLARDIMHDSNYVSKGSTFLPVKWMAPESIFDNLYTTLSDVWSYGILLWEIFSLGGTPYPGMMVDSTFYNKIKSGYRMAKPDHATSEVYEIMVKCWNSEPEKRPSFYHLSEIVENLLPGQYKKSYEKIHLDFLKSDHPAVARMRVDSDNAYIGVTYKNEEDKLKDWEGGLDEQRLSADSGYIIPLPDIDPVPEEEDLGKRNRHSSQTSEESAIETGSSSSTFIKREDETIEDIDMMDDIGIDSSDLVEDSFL

[5] = molecular target: Receptor-type tyrosine-protein kinase FLT3 (Homo sapiens, UniProt P36888); assay type: functional;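 further: FLT3 was tested as one member of a kinome-wide kinase panel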
Sequence of Receptor-type tyrosine-protein kinase FLT3 (P36888 whole entry): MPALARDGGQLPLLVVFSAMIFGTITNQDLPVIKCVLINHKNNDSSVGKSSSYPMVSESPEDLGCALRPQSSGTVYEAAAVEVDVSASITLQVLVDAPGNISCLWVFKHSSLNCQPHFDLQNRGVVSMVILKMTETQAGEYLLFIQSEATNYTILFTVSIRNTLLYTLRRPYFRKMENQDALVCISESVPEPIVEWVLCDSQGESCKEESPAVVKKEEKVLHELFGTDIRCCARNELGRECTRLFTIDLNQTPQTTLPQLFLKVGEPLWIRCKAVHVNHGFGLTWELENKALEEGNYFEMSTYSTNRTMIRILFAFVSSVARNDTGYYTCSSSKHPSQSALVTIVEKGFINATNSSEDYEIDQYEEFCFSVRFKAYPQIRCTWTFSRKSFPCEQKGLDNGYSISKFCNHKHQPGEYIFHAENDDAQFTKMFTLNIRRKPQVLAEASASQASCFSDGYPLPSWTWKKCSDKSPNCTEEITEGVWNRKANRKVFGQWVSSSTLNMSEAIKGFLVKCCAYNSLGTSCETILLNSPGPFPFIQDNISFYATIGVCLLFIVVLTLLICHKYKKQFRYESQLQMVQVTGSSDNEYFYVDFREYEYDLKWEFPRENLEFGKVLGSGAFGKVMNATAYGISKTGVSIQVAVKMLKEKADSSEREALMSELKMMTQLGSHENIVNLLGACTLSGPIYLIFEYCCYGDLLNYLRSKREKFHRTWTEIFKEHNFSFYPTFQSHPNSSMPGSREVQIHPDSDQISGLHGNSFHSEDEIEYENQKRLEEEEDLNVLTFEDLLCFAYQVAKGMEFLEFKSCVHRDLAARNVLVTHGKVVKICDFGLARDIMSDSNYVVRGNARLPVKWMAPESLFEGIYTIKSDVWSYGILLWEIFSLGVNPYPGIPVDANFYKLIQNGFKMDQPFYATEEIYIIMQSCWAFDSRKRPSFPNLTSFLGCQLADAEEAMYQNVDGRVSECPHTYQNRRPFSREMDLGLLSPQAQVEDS

[6] = molecular target: Tyrosine-protein kinase JAK3 (Homo sapiens, UniProt P52333); assay type: functional
Sequence of Tyrosine-protein kinase JAK3 (P52333 whole entry): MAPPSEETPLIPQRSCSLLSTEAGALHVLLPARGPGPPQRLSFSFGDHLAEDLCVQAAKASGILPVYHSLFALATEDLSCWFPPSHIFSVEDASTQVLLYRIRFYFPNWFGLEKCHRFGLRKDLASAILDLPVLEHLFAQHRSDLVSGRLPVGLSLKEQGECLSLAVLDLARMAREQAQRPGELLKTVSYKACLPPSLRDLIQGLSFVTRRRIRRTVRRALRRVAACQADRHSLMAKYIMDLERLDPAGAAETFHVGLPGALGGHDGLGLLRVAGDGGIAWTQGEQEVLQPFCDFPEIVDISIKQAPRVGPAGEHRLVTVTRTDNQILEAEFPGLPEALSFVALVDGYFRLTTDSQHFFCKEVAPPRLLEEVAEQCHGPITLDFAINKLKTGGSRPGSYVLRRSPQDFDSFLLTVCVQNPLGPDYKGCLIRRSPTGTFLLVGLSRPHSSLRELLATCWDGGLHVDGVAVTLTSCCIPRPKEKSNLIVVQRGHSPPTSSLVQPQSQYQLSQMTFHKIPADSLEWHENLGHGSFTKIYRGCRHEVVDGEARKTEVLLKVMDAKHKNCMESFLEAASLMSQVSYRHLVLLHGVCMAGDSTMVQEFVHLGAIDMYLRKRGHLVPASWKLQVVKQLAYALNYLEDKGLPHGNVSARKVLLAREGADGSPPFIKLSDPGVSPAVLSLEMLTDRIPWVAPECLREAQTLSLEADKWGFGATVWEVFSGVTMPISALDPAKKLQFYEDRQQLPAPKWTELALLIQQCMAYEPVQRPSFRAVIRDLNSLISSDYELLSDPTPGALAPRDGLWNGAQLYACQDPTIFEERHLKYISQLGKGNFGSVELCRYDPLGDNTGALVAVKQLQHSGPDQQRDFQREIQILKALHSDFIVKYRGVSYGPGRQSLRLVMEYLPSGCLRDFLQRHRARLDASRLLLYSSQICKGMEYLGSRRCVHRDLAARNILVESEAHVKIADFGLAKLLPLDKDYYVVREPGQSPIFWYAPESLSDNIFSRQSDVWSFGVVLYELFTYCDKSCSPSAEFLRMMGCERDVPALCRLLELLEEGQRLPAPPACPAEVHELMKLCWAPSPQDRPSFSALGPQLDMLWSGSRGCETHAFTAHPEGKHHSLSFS

[7] = molecular target: T2, Sentrin-specific protease 8 (Homo sapiens, UniProt Q96LD8); assay type: functional;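 further: kinetic enzyme assay of SENP8 cleaving a Nedd8 protein substrate, dose-response confirmation of screening hits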
T2 sequence (Q96LD8 whole entry): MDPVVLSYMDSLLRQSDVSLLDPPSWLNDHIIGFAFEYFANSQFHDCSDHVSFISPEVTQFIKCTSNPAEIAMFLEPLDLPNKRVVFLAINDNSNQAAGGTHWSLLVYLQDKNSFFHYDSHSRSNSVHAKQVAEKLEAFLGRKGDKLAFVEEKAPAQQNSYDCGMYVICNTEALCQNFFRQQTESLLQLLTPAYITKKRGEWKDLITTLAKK

[8] = molecular target: T3, Sentrin-specific protease 7 (Homo sapiens, UniProt Q9BQF6); assay type: functional;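 further: Luminescence-based dose-response confirmation of ultra-high-throughput screening hits, measuring inhibition of SENP7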
T3 sequence (Q9BQF6 whole entry): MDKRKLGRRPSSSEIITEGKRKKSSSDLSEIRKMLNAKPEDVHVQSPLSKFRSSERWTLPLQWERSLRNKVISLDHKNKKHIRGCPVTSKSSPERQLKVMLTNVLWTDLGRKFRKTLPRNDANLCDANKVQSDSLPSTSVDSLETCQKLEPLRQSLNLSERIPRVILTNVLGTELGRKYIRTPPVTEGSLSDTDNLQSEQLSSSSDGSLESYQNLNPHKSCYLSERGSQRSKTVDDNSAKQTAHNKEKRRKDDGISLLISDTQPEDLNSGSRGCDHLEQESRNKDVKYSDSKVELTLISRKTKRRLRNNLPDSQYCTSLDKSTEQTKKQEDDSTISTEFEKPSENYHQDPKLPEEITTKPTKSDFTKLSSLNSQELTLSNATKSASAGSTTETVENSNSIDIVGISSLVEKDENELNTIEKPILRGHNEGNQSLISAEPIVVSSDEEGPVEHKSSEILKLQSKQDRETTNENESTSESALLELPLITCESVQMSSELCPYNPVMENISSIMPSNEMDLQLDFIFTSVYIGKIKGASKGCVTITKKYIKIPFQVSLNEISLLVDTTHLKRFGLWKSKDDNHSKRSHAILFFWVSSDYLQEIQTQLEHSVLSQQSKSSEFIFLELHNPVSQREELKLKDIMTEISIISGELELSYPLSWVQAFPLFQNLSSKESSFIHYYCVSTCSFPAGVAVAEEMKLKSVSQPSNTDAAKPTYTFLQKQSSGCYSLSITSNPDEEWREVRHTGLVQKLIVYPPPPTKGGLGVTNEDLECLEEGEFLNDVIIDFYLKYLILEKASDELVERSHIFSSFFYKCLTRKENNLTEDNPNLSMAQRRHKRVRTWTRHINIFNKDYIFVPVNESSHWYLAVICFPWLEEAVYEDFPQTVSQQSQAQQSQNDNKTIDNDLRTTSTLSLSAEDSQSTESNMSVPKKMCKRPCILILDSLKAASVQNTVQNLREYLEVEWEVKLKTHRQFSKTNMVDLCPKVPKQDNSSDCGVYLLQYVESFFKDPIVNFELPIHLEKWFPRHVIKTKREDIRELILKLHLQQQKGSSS

## O=C1C=C(O)c2c(O)cc(O)c(O)c2C1=O
[1]
  EC50: 0.899 µM (active)

## Cc1ccc(-c2cc3nc(Br)cnc3[nH]2)cc1
[2]
  Ki: > 3.16 µM (inactive)
[3]
  Ki: > 2.51 µM (inactive)
[4]
  Ki: > 2.51 µM (inactive)
[5]
  Ki: > 3.16 µM (inactive)
[6]
  Ki: > 5.01 µM (inactive)

## CC1(C)C=C2C(=NN(c3ccccc3)C(N)=C2C#N)CO1
[7]
  IC50: 0.0173 µM (active)

## CC(=O)N(C1=C(Cl)C(=O)c2ccccc2C1=O)c1ccc(C(=O)O)cc1
[8]
  IC50: 8.9 µM (active)
